Source: US20250205342A1, “IRAK DEGRADERS AND USES THEREOF” (Kymera Therapeutics, Inc., priority 2022, published 2025)

Legend:
IRAK4 [1] = target: T1, IRAK4 (Homo sapiens, UniProt Q9NWZ3); assay: IRAK4 degradation in OCI-LY10 (MSD, Meso Scale Discovery); type: cell-based; parameters: endogenous in cells; host or cells: OCI-LY10; details: OCI-LY10 cells, 24 h
T1 sequence (Q9NWZ3 1-460): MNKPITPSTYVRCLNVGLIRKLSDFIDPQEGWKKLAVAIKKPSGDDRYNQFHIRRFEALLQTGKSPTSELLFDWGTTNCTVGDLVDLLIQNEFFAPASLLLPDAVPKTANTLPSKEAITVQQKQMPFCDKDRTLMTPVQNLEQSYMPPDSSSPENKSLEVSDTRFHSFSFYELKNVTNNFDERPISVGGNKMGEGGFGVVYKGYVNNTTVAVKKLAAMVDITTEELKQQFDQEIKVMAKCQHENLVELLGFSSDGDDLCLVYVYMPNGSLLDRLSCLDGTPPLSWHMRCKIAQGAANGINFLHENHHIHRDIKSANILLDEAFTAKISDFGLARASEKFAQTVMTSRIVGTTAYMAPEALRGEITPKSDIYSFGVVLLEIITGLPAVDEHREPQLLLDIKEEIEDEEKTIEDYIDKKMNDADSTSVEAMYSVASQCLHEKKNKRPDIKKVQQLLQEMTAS
Summary of the method: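 OCI-LY10 cells (300,000/well) were treated with an 8-point 1:3 series (top 1 to 10 μM) for 4 to 24 h at 37 °C. IRAK4 in RIPA lysates was quantified by MSD sandwich immunoassay with two anti-IRAK4 antibodies. DC50 was fitted with a three-parameter logistic equation.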

IRAK4 [2] = target: T1, IRAK4; assay: hPBMC IRAK4 degradation flow assay (monocytes); type: cell-based; parameters: endogenous in cells; host or cells: human PBMCs (monocytes, CD14 positive gate); details: CD14 positive monocytes, 20 h, read-out: hPBMC monocyte DC50 at 20 h
Summary of the method: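 Thawed human PBMCs treated 20 h (or 4 h) at 37° C. with 10-point 5-fold compound dilutions, 0.1% DMSO, then fixed, methanol-permeabilized and stained for IRAK4 and lineage markers by flow, with monocytes gated CD14+. IRAK4 MFI normalized to DMSO and 10 µM control; DC50 and max degradation from 4-parameter logistic fit.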

Structure (SMILES) | DC50 (IRAK4 [1]) | DC50 (IRAK4 [2])
CCOC(=O)Cn1cc(NC(=O)c2cc(CCCCCCCCCNC[C@H]3CC[C@H](n4cc(NC(=O)c5cnn6ccc(N7C[C@H]8C[C@@H]7CO8)nc56)c(C(F)F)n4)CC3)cc(-c3cccnc3)c2)ccc1=O [Compound I-75] | 1 to 10 µM | > 10 µM
O=C(O)Cn1cc(NC(=O)c2cc(CCCNC[C@H]3CC[C@H](n4cc(NC(=O)c5cnn6ccc(N7C[C@H]8C[C@@H]7CO8)nc56)c(C(F)F)n4)CC3)cc(-c3cccnc3)c2)ccc1=O [Compound I-76] | > 10 µM | > 10 µM
O=C(O)Cn1cc(NC(=O)c2cccc3c2ccn3CCCNC[C@H]2CC[C@H](n3cc(NC(=O)c4cnn5ccc(N6C[C@H]7C[C@@H]6CO7)nc45)c(C(F)F)n3)CC2)ccc1=O [Compound I-77] | > 10 µM | > 10 µM
CC(C)(O)c1cc2nn([C@H]3CC[C@H](CNCCCn4ccc5c(C(=O)Nc6ccc(=O)n(CC(=O)O)c6)cccc54)CC3)cc2cc1NC(=O)c1cccc(C(F)(F)F)n1 [Compound I-78] | > 10 µM | > 10 µM
CCOC(=O)Cn1cc(NC(=O)c2cccc3c2ccn3CCCNC[C@H]2CC[C@H](n3cc4cc(NC(=O)c5cccc(C(F)(F)F)n5)c(C(C)(C)O)cc4n3)CC2)ccc1=O [Compound I-79] | > 10 µM | > 10 µM
CC(C)(O)c1cc2nn([C@H]3CC[C@H](CNCCCc4cc(C(=O)Nc5ccc(=O)n(CC(=O)O)c5)cc(-c5cccnc5)c4)CC3)cc2cc1NC(=O)c1cccc(C(F)(F)F)n1 [Compound I-80] | > 10 µM | > 10 µM
CCOC(=O)Cn1cc(NC(=O)c2cccc3c2ccn3CCCNC[C@H]2CC[C@H](n3cc(NC(=O)c4cnn5ccc(N6C[C@H]7C[C@@H]6CO7)nc45)c(C(F)F)n3)CC2)ccc1=O [Compound I-81] | > 10 µM | > 10 µM
CCOC(=O)Cn1cc(NC(=O)c2cc(CCCNC[C@H]3CC[C@H](n4cc5cc(NC(=O)c6cccc(C(F)(F)F)n6)c(C(C)(C)O)cc5n4)CC3)cc(-c3cccnc3)c2)ccc1=O [Compound I-82] | > 10 µM | > 10 µM
CCOC(=O)Cn1cc(NC(=O)c2cc(CCCNC[C@H]3CC[C@H](n4cc(NC(=O)c5cnn6ccc(N7C[C@H]8C[C@@H]7CO8)nc56)c(C(F)F)n4)CC3)cc(-c3cccnc3)c2)ccc1=O [Compound I-83] | > 10 µM | > 10 µM
CC(C)(O)c1cc2nn([C@H]3CC[C@H](CNCCCCCCCCCc4cncc(-c5cccc(C(=O)Nc6ccc(=O)n(CC(=O)O)c6)c5)c4)CC3)cc2cc1NC(=O)c1cccc(C(F)(F)F)n1 [Compound I-84] | > 10 µM | 1 to 10 µM
O=C(O)Cn1cc(NC(=O)c2cccc(-c3cncc(CCCCCCCCCNC[C@H]4CC[C@H](n5cc(NC(=O)c6cnn7ccc(N8C[C@H]9C[C@@H]8CO9)nc67)c(C(F)F)n5)CC4)c3)c2)ccc1=O [Compound I-85] | > 10 µM | > 10 µM
CC(C)(O)c1cc2nn([C@H]3CC[C@H](CNCCCc4cncc(-c5cccc(C(=O)Nc6ccc(=O)n(CC(=O)O)c6)c5)c4)CC3)cc2cc1NC(=O)c1cccc(C(F)(F)F)n1 [Compound I-86] | > 10 µM | > 10 µM
O=C(O)Cn1cc(NC(=O)c2cccc(-c3cncc(CCCNC[C@H]4CC[C@H](n5cc(NC(=O)c6cnn7ccc(N8C[C@H]9C[C@@H]8CO9)nc67)c(C(F)F)n5)CC4)c3)c2)ccc1=O [Compound I-87] | > 10 µM | > 10 µM
CCOC(=O)Cn1cc(NC(=O)c2cccc(-c3cncc(CCCCCCCCCNC[C@H]4CC[C@H](n5cc6cc(NC(=O)c7cccc(C(F)(F)F)n7)c(C(C)(C)O)cc6n5)CC4)c3)c2)ccc1=O [Compound I-88, Ethyl 2-[5-[[3-[5-[9-[4-[6-(1-hydroxy-1-methyl-ethyl)—5-[[6-(trifluoromethyl)pyridine-2-carbonyl]amino]indazol-2-yl]cyclohexyl]methylamino]nonyl]-3-pyridyl]benzoyl]amino]-2-oxo-1-pyridyl acetate] | 1 to 10 µM | 0.1 to 1 µM
